Test results as given in article PMC6609550, “Blockade of the forward Na^+/Ca^2+ exchanger suppresses the growth of glioblastoma cells through Ca^2+‐mediated cell death” (British Journal of Pharmacology, 2019).

Key:
Type in all cases: cell-based, Human
[1] = tested on: U87 cells; assay: Annexin V–FITC/PI apoptosis assay of U87 cells
Description: (§1) U87 cells were seeded in six‐well plates (Corning, Corning, NY, USA) with 1 × 10^6 cells per well and treated with NCX blockers, BAPTA‐AM, or MAPK inhibitors. Drug treatment was performed by the person who is blinded to the experimental groups. After treatment, cells were harvested in 15‐ml tubes and washed with cold sterile PBS. After being centrifuged, cells were fixed with 70% ethanol […] at 4°C for at least 1 hr. For propidium iodide (PI) staining, cells were washed one time with PBS and then were treated with ribonuclease A (RNase; 100 μg·ml^−1) for 30 min. PI (10 μg·ml^−1) was added, and stained cells were kept in the dark at 4°C until analysis. The number of cells analysed for each sample was 10,000 events. FACS analysis was performed using the Coulter CytoFlexS flow cytometer (Beckman Coulter, CA, USA), and the percentage of cells in the G0/G1, S, and G2/M phases was determined using cell cycle analysis software, ModFit LT 5.0 (Verity Software House, Topsham, ME, USA). For the apoptosis assay, cells were harvested and washed twice with cold PBS and resuspended at a density of 1 × 10^6 cells·ml^−1 in 100 μl of binding buffer containing 5 μl of Annexin V–FITC and 5 μl of PI working solution (100 μg·ml^−1). After incubation at room temperature for 15 min in the dark, 400 μl of binding buffer was added to each sample. Apoptosis was analysed by Coulter CytoFlexS flow cytometer (Beckman Coulter) for at least 10,000 events, and data were analysed with the software, CyExpert 2.0 (Beckman Coulter).

[2] = tested on: JNK; assay: Western blot of phosphorylated and total JNK in U87 cells; details: BAPTA‐AM 10 μM 18 hr then bepridil 25 μM 30 min
Description: (§2) After treatment with bepridil for 0, 30, 60, and 90 min, cells were collected and lysed in RIPA buffer (Beyotime, Nanjing, China) supplemented with protease inhibitor (Beyotime). The total protein concentration of each sample was determined using the BCA Protein Assay Kit (Sangon Biotech, Shanghai, China). Equal protein extracts (45‐μg protein per lane) were separated by SDS‐PAGE and electrophoretically transferred to PVDF membranes (Millipore, Bedford, MA, USA). Then, the membranes were incubated with anti‐phosphorylated and total http://www.guidetopharmacology.org/GRAC/FamilyDisplayForward?familyId=514, http://www.guidetopharmacology.org/GRAC/FamilyDisplayForward?familyId=518, and http://www.guidetopharmacology.org/GRAC/FamilyDisplayForward?familyId=519 antibodies (1:1,000; Cell Signaling Technology) at 4°C overnight, followed by incubation with IRDye 680LT fluorescent secondary antibody (LI‐COR Biosciences, Lincoln, NE, USA). Proteins were visualized using the Odyssey Fc Imaging System (LI‐COR Biosciences, Lincoln, NE, USA). Mouse α‐tubulin antibody was used as protein loading controls. The immuno‐related procedures used comply with the recommendations made by the British Journal of Pharmacology (Alexander et al., 2018).

[3] = tested on: [Ca^2+]i in U87 cells; assay: Ca2+ imaging (Fluo-4 AM) of U87 cells; details: BAPTA‐AM 20 μM for 2 hr before perfusion
Description: Cells were cultured in 96‐well plates at 8 × 10^3 per well and loaded with the cell membrane‐permeable Ca^2+ dye Fluo‐4 AM (5 μM) in 100‐μl HEPES‐buffered solution for 50 min. The solution contained (mM): 135 NaCl, 3 KCl, 2 CaCl2, 1 MgCl2, 10 glucose, and 10 HEPES, supplemented with 1% FBS at pH 7.4. To prepare the Ca^2+‐free solution, 2‐mM CaCl2 was replaced with 1‐mM EGTA in the HEPES‐buffered solution. The 96‐well plate containing the Fluo‐4 AM‐loaded cells was mounted in a Leica TCS SP8 confocal system (Leica Microsystems, Wetzlar, Germany). The confocal microscope armed with 488‐nm laser light was employed to excite the dynamic fluorescent signals in time and synchronously, while test regents were added to cells. To do Na^+ imaging, Fluo‐4 AM was replaced with the cell membrane‐permeable Na^+ dye Asante NaTrium Green‐2 AM (ANG‐2 AM) at 5 μM, which was excited by 514‐nm laser light. Visual inspection and fluorescent imaging were carried out at room temperature. The imaging data were analysed with the software https://leica-las-af-lite.software.informer.com/ 2.5 (Leica). The imaging traces shown are representative of at least three separate experiments; 12–18 cells were imaged in each experiment.

[4] = tested on: p38‐MAPK; assay: Western blot of phosphorylated and total p38-MAPK in U87 cells; details: BAPTA‐AM 10 μM 18 hr then bepridil 25 μM 30 min
Description: as §2

[5] = tested on: U87 cells; assay: Cell cycle assay (PI staining, flow cytometry) of U87 cells
Description: as §1

[6] = BAPTA‐AM 10 μM 18 hours then CB‐DMB 3.5 μM 18 hours

Question: What does the source list for `CC(=O)OCOC(=O)CN(CC(=O)OCOC(C)=O)c1ccccc1OCCOc1ccccc1N(CC(=O)OCOC(C)=O)CC(=O)OCOC(C)=O` [BAPTA‐AM, 1,2‐bis(2‐aminophenoxy)ethane‐N,N,N′,N′‐tetraacetic acid tetrakis (acetoxymethyl ester)]?
Answer: Effect on CB-DMB-induced apoptosis [1, 6]: significantly suppressed; Effect on KB-R7943-induced apoptosis ([1]; BAPTA‐AM 10 μM + KB‐R7943 25 μM, 20 hr): not attenuated; Effect on bepridil-induced apoptosis ([1]; bepridil 25 μM 24 hr, pretreatment BAPTA‐AM 10 μM, CC‐930 10 μM or PD169316 10 μM): significantly attenuated; Effect on bepridil-induced JNK activation [2]: attenuated; Effect of pretreatment on the influence of bepridil and KB‐R7943 on [Ca2+]i [3]: completely abrogated; Effect on bepridil-induced p38-MAPK activation [4]: attenuated; Effect on CB-DMB-induced cell cycle arrest [5, 6]: significantly attenuated; Effect on KB-R7943-induced G0/G1 arrest ([5]; BAPTA‐AM 10 μM + KB‐R7943 25 μM, 18 hr): not rescued; Effect on bepridil-induced G0/G1 cell cycle arrest ([5]; bepridil 25 μM 18 hr, pretreatment BAPTA‐AM 10 μM, CC‐930 10 μM or PD169316 10 μM): significantly attenuated
